Assay results published in patent publication US10548319B2, “Compositions and methods for synthetic amphiphile-induced changes in plant root morphology” (The Curators of the University of Missouri, priority 2014, dated 2020).
Where two headings read alike, the source gives them in different places.

Tests used:
[1] = tested on: A. thaliana (Col-0) plant; type: in vivo, Arabidopsis thaliana; conditions: for Decrease in primary root length: vs PNS
Excerpt: The effect treating a plant with a composition comprising a synthetic amphiphile on root morphology or other physical characteristics or attributes can be quantitated. For example, a change in primary root length can be determined by measuring the difference, if any, in primary root length of a plant treated with the composition compared to the average of a control sample of plants of the same type grown under identical conditions in the absence of the composition. A change in lateral root density can be determined by comparing the lateral root density of a plant treated with the composition to the average lateral root density of a sample grown under identical conditions in the absence of the composition. Lateral root density can be determined by dividing the number of lateral roots by the length of the primary root. In certain embodiments for any quantitated characteristic or attribute, the average value of the control is the average of a statistically significant population of control plants. For example, in certain illustrative embodiments disclosed herein, three trials of about 20 plants each were used to determine the average of the control.
Illustrative of certain embodiments, approximately 60 plants were grown on PNS media (no additives) and root lengths and the number of lateral roots were recorded for each. The data points were averaged to obtain the following baseline values: primary root length=40.4±3.8 mm and number of lateral roots=6.1±0.8, respectively. The lateral root density was obtained by dividing the number of lateral roots by the length (in mm) of the primary root. The control value was (6.1/[…]=) 0.15.
Test compounds were added to the growth medium as 0.2% by volume DMSO. […]
To make 500 mL PN media, 485 mL doubly distilled (“dd”) H2O was first added to an autoclave beaker. The following salts and nutrients were added to a beaker and mixed well: 5 mL of 250 mM of KPO4 (pH 5.5), 2.5 mL of 1M KNO3, 1 mL of 1M MgSO4, 1 mL of 1M Ca(NO3)2, 0.5 mL of Ferric EDTA (1000× or 49 mM) and 0.5 mL of Micronutrients (1000×). In a 1 L autoclaved bottle, 0.6% (3 g) of bacteriological agar was added, followed by 500 mL solution prepared above. The media was autoclaved using the Liquid-30 program.
PNS plates were used for plating sterile Arabidopsis thaliana (Columbia-0) seeds. A sterile stock of PNS agar was maintained. Sterile sucrose was added to PN media to make PNS media. To make PNS media containing 0.5% sucrose, 5 mL of 50% sucrose (sterile filtered) was added to 500 mL of PN agar and mixed well.
The stored PNS media was liquefied using a water bath and allowed to cool to 55° C. The type of plates, compounds, and concentrations to be used were confirmed while the media cooled. The plates were labeled on the cover and the bottom with all the relevant information. 50 mL sterile centrifuge tubes were used to measure 29,940 μL (29.94 mL) PNS media. A fresh sterile 50 mL tube was used for each plate. The desired amount and concentration of compound was added to the PNS media, mixed by inverting the tube and poured in the plate. Total volume of media and compound in each plate was kept constant at 30 mL. A maximum of 60 μL (0.2% by volume) compound was added per plate. For example: 60 μL of 25 mM compound was added to 29.94 mL PNS media to get final concentration of 50 μM compound in PNS media. Plates were incubated at room temperature for 2 hours before plating seeds on them.
Hands and bench area were washed thoroughly before beginning. Sterilizing solution was prepared in a sterile 15 mL centrifuge tube, by mixing 5 mL of 30% bleach and 5 μL of 10% Triton X-100. A. thaliana Col-0 seeds were added to sterile 1.5 mL micro-centrifuge tube. 500 μL of sterilizing solution (30% bleach+0.01% Triton X-100) was added to the seeds, vortexed for 3 seconds and incubated at room temperature for 8 minutes. After 8 minutes, bleach was removed and 1 mL autoclaved MilliQ water was added. […]

[2] = study of hydraphiles having various chain lengths; cited from earlier work
[3] = Table 2, 20 μM in PNS, no unit in table (method: millimeters)
[4] = Table 2, 50 μM in PNS, no unit in table (method: millimeters)

Compound	Primary root length ([1]; hydraphile 20 μM in PNS media)	Primary root length ([1]; hydraphile 20 μM in PNS media, listed as C8 benzyl hydraphile (compound 1))	Decrease in primary root length ([1]; hydraphile 20 μM)	Lateral root density ([1]; hydraphile 20 μM, lateral roots divided by primary root length)	Primary root length ([1]; hydraphile 50 μM in PNS media)	Primary root length ([1]; hydraphile 50 μM in PNS media, listed as C8 benzyl hydraphile (compound 1))	Decrease in primary root length ([1]; hydraphile 50 μM)	Lateral root density ([1]; hydraphile 50 μM, lateral roots divided by primary root length)	Sodium cation conduction [2]	Lateral root density with increasing concentration ([1]; 0 μM to 50 μM, FIG. 7)	Lateral root density ([1]; Table 2, 20 μM)	Number lateral roots ([1]; Table 2, 20 μM)	Percent decrease 1° root ([1]; Table 2, 20 μM)	Primary root length [1, 3]	Lateral root density ([1]; Table 2, 50 μM)	Number lateral roots ([1]; Table 2, 50 μM)	Percent decrease 1° root ([1]; Table 2, 50 μM)	Primary root length [1, 4]	Change in root morphology ([1]; lariat ether 20 μM)
c1ccc(CN2CCOCCOCCN(CCCCCCCCN3CCOCCOCCN(CCCCCCCCN4CCOCCOCCN(Cc5ccccc5)CCOCCOCC4)CCOCCOCC3)CCOCCOCC2)cc1 [C8 hydraphile (1)]	34 ± 7 mm	34±7 mm	9%	0.15±0.01	31 ± 6 mm	31±6 mm	19%	0.18±0.03	did not conduct sodium cation efficiently	–	–	–	–	–	–	–	–	–	–
CCCCCCCCN1CCOCCOCCN(CCCCCCCC)CCOCCOCC1 [C8 lariat ether, N,N′-Di-n-octyl-4,13-diaza-18-crown-6]	–	–	–	–	–	–	–	–	–	Linear increase in lateral root density	0.64	5.1	83.4%	6.8 mm	1.38	2.2	96.1%	1.6 mm	significant change in root morphology
CCCCCCCCCCCCC(=O)N1CCOCCOCCN(C(=O)CCCCCCCCCCCC)CCOCCOCC1 [C13 lariat ether amide]	–	–	–	–	–	–	–	–	–	–	0.14	5.1	11.8%	36.9 mm	0.14	4.2	14.9%	35.6 mm	–
CCCCCCC(=O)N1CCOCCOCCN(C(=O)CCCCCC)CCOCCOCC1 [C7 lariat ether amide]	–	–	–	–	–	–	–	–	–	–	0.21	4.5	45.3%	22.9 mm	0.65	4.2	82.5%	7.3 mm	–
